Results: BigSolDB 2.1

CN1CCN(c2cc3c(cc2F)c(=O)c(C(=O)O)cn3-c2ccc(F)cc2)CC1
solubility (mole fraction)
Settings | 293.15 K | 295.15 K | 298.15 K | 300.15 K | 303.15 K | 305.15 K | 308.15 K | 310.15 K | 313.15 K
in acetone | 0.0052 | 0.0058 | 0.0067 | 0.0073 | 0.0081 | 0.0087 | 0.0096 | 0.0104 | 0.011
in ethanol | 0.0387 | 0.0435 | 0.0507 | 0.0559 | 0.0636 | 0.0683 | 0.0754 | 0.0795 | 0.0856
in methanol | 0.0064 | 0.0068 | 0.0073 | 0.0077 | 0.0084 | 0.0088 | 0.0095 | 0.0099 | 0.0104
